Data from a melting point compilation (Tetko et al.).

CNS(=O)(=O)c1cc(Br)cnc1N
melting point: 179 to 181 °C

Cc1cc(C)nc(C#N)c1
melting point: 43 to 45 °C

Cn1cnnc1-c1ccnc(N)c1
melting point: 204 to 206 °C

O=C(O)c1cc(I)cc([N+](=O)[O-])c1
melting point: 167 to 169 °C

ClCc1nc(-c2ccccn2)no1
melting point: 102 to 104 °C

O=C(O)c1ccc2c(c1)C(=O)N(Cc1ccccc1)C2=O
melting point: 198 to 200 °C

Cc1ccc(C)n1-c1nc(CC(=O)O)cs1
melting point: 100 to 102 °C

Cc1cc(=O)[nH]c(-c2ncccn2)n1
melting point: 172 to 174 °C

Oc1ccc(Oc2ccc(C(F)(F)F)cn2)cc1
melting point: 90 to 92 °C

O=C1CNc2ccccc2N1
melting point: 119 to 121 °C

Nc1ccc(NC(=O)c2ccccc2)cc1C(F)(F)F
melting point: 130 to 132 °C

O=C(O)C1CCCN(S(=O)(=O)c2ccc(Br)s2)C1 (centres undefined)
melting point: 157 to 159 °C

Nc1cc(Br)cnc1-n1cccn1
melting point: 72 to 74 °C

NC(CCc1ccccc1)=NO
melting point: 40 to 42 °C

CC(C)c1ccc2c(c1)C(=O)C(=O)N2
melting point: 93 to 95 °C

COC(=O)c1cc2ccc(OCc3ccccc3)cc2[nH]1
melting point: 136 to 138 °C

COC(=O)Nc1ccccc1O
melting point: 120 to 122 °C

O=c1[nH]nc(Br)c(=O)[nH]1
melting point: 188 to 190 °C

COc1cc(C)c(Br)cc1S(=O)(=O)Cl
melting point: 137 to 139 °C

COc1ccc(NCCC(=O)O)cc1
melting point: 82 to 84 °C

CC(C)Oc1ccc(S(N)(=O)=O)c2ccccc12
melting point: 95 to 97 °C

Clc1cc(Cl)cc(OCC2CCNCC2)c1
melting point: 59 to 61 °C

CC(=O)c1ccc(CNC(=O)OC(C)(C)C)nc1C
melting point: 72 to 74 °C

CCS(=O)(=O)N1Cc2ccccc2CC1C(=O)O (centres undefined)
melting point: 110 to 114 °C

Cc1ccc(O)c(N)n1
melting point: 145 to 147 °C

CCc1nn(C)c(Cl)c1C=O
melting point: 38 to 40 °C

CC1(c2ccc(C#N)cc2)NC(=O)NC1=O (centres undefined)
melting point: 209 to 211 °C

COc1cccc(COCC(N)=NO)c1
melting point: 59 to 61 °C

O=C(Nc1ccccc1F)Nc1cccc2c1CCNC2
melting point: 157 to 159 °C

Clc1cnc(N2CCNCC2)c(Cl)c1
melting point: 59 to 61 °C

O=[N+]([O-])c1cc(Cl)cc(Cl)c1S(=O)(=O)Cl
melting point: 218 to 221 °C

CC(NC(=O)C1CCOCC1)C(=O)O (centres undefined)
melting point: 178 to 180 °C

NCCNc1cn[nH]c(=O)c1Cl
melting point: 195 to 197 °C

Cc1c(N)cccc1COC1CCCCC1
melting point: 54 to 56 °C

Cc1ccc(C)c(-c2cnnc(N)n2)c1
melting point: 179 to 181 °C

O=C(NC1CC1)OCC(F)(F)F
melting point: 53 to 55 °C

N#CCC(=O)c1c[nH]c2cc(Cl)ccc12
melting point: 293 to 295 °C

Cn1c(S)nc2cc(S(N)(=O)=O)ccc21
melting point: 313 to 315 °C

Cn1ccc(C(=O)CCl)c1
melting point: 49 to 51 °C

COc1ccc(C2C(C(=O)O)CCC(=O)N2c2ccc(C)cc2)cc1 (centres undefined)
melting point: 201 to 203 °C

CN(C)C(Cc1ccccc1)C(=O)O (centres undefined)
melting point: 225 to 227 °C

COC(=O)NC(Cc1ccccc1)C(=O)O (centres undefined)
melting point: 75 to 77 °C

O=C(OCc1ccccc1)N1CCc2n[nH]c(=O)cc2C1
melting point: 175 to 177 °C

COc1cc(C=O)cc(Cl)c1O
melting point: 162 to 166 °C

Nc1nc(Cl)ccc1C(=O)O
melting point: 216 to 218 °C

CC(C)C(O)c1nccn1C (centres undefined)
melting point: 80 to 82 °C

CS(=O)(=O)c1cccc(C(N)c2ccc(Cl)cc2)c1 (centres undefined)
melting point: 94 to 96 °C

COc1cc(OC)c(N)c(C(=O)O)c1
melting point: 189 to 191 °C

CCn1c(C)cc(C=O)c1C
melting point: 87 to 89 °C

Oc1ncc(F)cc1I
melting point: 119 to 121 °C

COc1ccc(C(N)Cc2ccccc2C)cc1OC (centres undefined)
melting point: 49 to 51 °C

CC(Cl)c1nnc(-c2ccc(F)cc2)o1 (centres undefined)
melting point: 67 to 69 °C

O=C(O)C1CCN(C(=O)CSc2nnc(-c3ccccc3)o2)CC1
melting point: 104 to 106 °C

NNC(=O)Cc1ccc(F)cc1
melting point: 129 to 131 °C

FC(F)(F)Oc1cccc2c(Cl)ccnc12
melting point: 51 to 53 °C

O=C(O)c1nc(-n2cnc3ccccc32)ccc1Cl
melting point: 192 to 194 °C

CC1CNCCC1NC(=O)OC(C)(C)C (centres undefined)
melting point: 104 to 106 °C

Nc1ccc(Oc2ccnc3ccccc23)c(F)c1
melting point: 158 to 160 °C

O=C(O)C1CCN(c2ccc(Cl)cn2)CC1
melting point: 152 to 154 °C

Nc1cc(Cl)c(S(N)(=O)=O)cc1[N+](=O)[O-]
melting point: 257 to 259 °C

O=C1NC(=O)C2(Cc3ccccc3C2)N1
melting point: 264 to 266 °C

c1ccc2c(c1)NCCCS2
melting point: 22 to 24 °C

O=C1C(Br)CCN1c1ccc(F)c(Cl)c1 (centres undefined)
melting point: 99 to 101 °C

O=C(CBr)c1ccc2c(c1)Cc1ccccc1-2
melting point: 141 to 143 °C

Nc1nnc(Cc2cccc(F)c2)s1
melting point: 193 to 195 °C

CS(=O)(=O)Cc1ccc(N)cc1F
melting point: 152 to 154 °C

Nc1ccc(-c2ncc3n2CCCC3)cc1
melting point: 182 to 184 °C

O=c1[nH]c(N2CCOCC2)cc2ccccc12
melting point: 212 to 214 °C

CCCS(=O)(=O)N1CCC(=NO)CC1
melting point: 146 to 148 °C

COc1cc(CC#N)ccc1OCC(F)(F)F
melting point: 62 to 64 °C

NCC(c1ccccc1)c1c[nH]c2ccccc12 (centres undefined)
melting point: 123 to 125 °C

Nc1ccc2c(c1)OC1(CCCCC1)O2
melting point: 65 to 67 °C

N#CC(Cl)(Cl)c1nc2ccccc2s1
melting point: 66 to 68 °C

Cc1cc(C)n(-c2ccc(C(F)(F)F)cc2N)n1
melting point: 85 to 87 °C

O=C1CC2(CCCc3ccccc32)C(=O)O1 (centres undefined)
melting point: 99 to 101 °C

O=C(O)c1cnns1
melting point: 103 to 105 °C

CS(=O)(=O)c1ncc[nH]1
melting point: 206 to 208 °C

Cc1cccc(NC(=O)CN2CCNCC2)c1C
melting point: 55 to 57 °C

c1ccc2c(c1)CNc1ccccc1-2
melting point: 120 to 122 °C

CCCN(CCC)C(=O)c1cccc(C(=O)O)c1
melting point: 94 to 96 °C

CS(=O)CCC(=O)O (centres undefined)
melting point: 57 to 59 °C

N#CC1(c2ccc3c(c2)OCO3)CC1
melting point: 73 to 75 °C

N#Cc1cccc(OCC(=O)NC2CC2)c1
melting point: 106 to 108 °C

Nc1ccc(Cl)cc1C(=O)N1CCCC1
melting point: 139 to 141 °C

CC(=O)c1cc2nc(C)ccc2o1
melting point: 119 to 121 °C

O=[N+]([O-])c1c(F)ccc2ncccc12
melting point: 84 to 86 °C

CCOc1cc(C=O)cc(Br)c1OCc1ccccc1
melting point: 55 to 57 °C

CC(C)(C)OC(=O)N1CCN(c2nnc(N)[nH]2)CC1
melting point: 178 to 180 °C

CC(C)(C)OC(=O)NCCN=C=O
melting point: 102 to 104 °C

O=C(CCCl)Nc1ccc2[nH]c(=O)[nH]c2c1
melting point: 299 to 301 °C

CC(Sc1ccccn1)C(=O)O (centres undefined)
melting point: 70 to 72 °C

COc1ccc(NS(=O)(=O)c2cc(C(=O)O)ccc2F)cc1
melting point: 209 to 211 °C

COCCN1C(=O)C(=O)c2ccc(Br)cc21
melting point: 139 to 141 °C

O=C(NCc1cn[nH]c1)OCc1ccccc1
melting point: 126 to 128 °C

Cc1cc(N)c(C)cn1
melting point: 145 to 147 °C

CCc1cccc2c(C(=O)O)c[nH]c12
melting point: 193 to 195 °C

O=[N+]([O-])c1ccc(-c2cn3ccsc3n2)cc1
melting point: 284 to 286 °C

Nc1ccc2c(c1)NC(=O)CO2
melting point: 215 to 217 °C

O=C(O)CNC(=O)NC1CCCCC1
melting point: 162 to 164 °C

NNC(=O)C(=O)N1CCCC1
melting point: 117 to 119 °C

Nc1ccc(N2CCSCC2)cc1
melting point: 109 to 111 °C

CNC1(CO)CCC(c2ccccc2)CC1 (centres undefined)
melting point: 127 to 129 °C

O=C(O)CCNS(=O)(=O)c1cccs1
melting point: 143 to 145 °C

O=C(O)CCCCCNC1=NS(=O)(=O)c2ccccc21
melting point: 189 to 191 °C

O=C(O)c1cc(S(=O)(=O)Cl)c(Br)s1
melting point: 109 to 111 °C

C=C(CC(=O)OC)C(=O)O
melting point: 67 to 69 °C

O=Cc1ccc(OCC(=O)O)c([N+](=O)[O-])c1
melting point: 156 to 158 °C

O=C(O)CNC(=O)c1ccccc1Cl
melting point: 182 to 184 °C

Nc1ccc(N2CCNC(=O)C2)c(Cl)c1
melting point: 147 to 149 °C

O=C(O)CSC(=Cc1ccco1)c1nc2ccccc2s1
melting point: 133 to 135 °C

O=C(O)CNC(=O)c1c(F)cccc1Cl
melting point: 197 to 199 °C

Cc1cc(C)c(C=O)cc1C
melting point: 41 to 46 °C

CC(C)c1ccc(-n2ccnc2S)cc1
melting point: 131 to 135 °C

CCC(=CC(=O)O)c1cccc(Cl)c1
melting point: 79 to 81 °C

CN(C)c1nc(C=O)c(Cl)n1-c1ccc(Br)cc1
melting point: 115 to 117 °C

O=C(O)c1cc(Br)c[nH]1
melting point: 169 to 171 °C

COC(=O)CC1CCCCC1=NO (centres undefined)
melting point: 74 to 76 °C

CCCN1C(=O)NC(C)(C)C1=O
melting point: 109 to 111 °C

CC1CN(S(=O)(=O)c2ccc(C(=O)O)cc2)CC(C)O1 (centres undefined)
melting point: 268 to 270 °C

Cc1cc(C)cc(OCC(=O)N2Cc3ccccc3CC2C(=O)O)c1 (centres undefined)
melting point: 161 to 165 °C

O=C(O)C=Cc1cc(Br)ccc1OC(F)F
melting point: 155 to 157 °C

Nc1nc2cc(Br)ccc2n1Cc1ccccc1
melting point: 213 to 215 °C

CNc1cc(C#N)c2ccccc2n1
melting point: 166 to 168 °C

O=C(C1Cc2ccccc2CN1)N1CCCC1 (centres undefined)
melting point: 88 to 90 °C

O=C(Nc1ccccc1)c1cccc(O)c1
melting point: 151 to 153 °C

OCc1cncc2ccccc12
melting point: 86 to 88 °C

CC1(c2ccc(F)c(F)c2)NC(=O)NC1=O (centres undefined)
melting point: 175 to 177 °C

Cc1cccc(-n2c(C)cc(C(=O)CCl)c2C)c1
melting point: 99 to 101 °C

O=C(O)c1ccc(OC2CCCC2)cc1
melting point: 171 to 173 °C

Cc1ccc(C#N)cc1S(N)(=O)=O
melting point: 194 to 196 °C

CS(=O)(=O)c1ccccc1Br
melting point: 107 to 109 °C

O=C(O)C1CC(=O)N(c2cccc3ccccc23)C1 (centres undefined)
melting point: 207 to 209 °C

CNS(=O)(=O)c1ccc(N)cc1C
melting point: 117 to 119 °C

Cc1c(N)cccc1CN1CCSCC1
melting point: 80 to 82 °C

Cc1cc(=O)c(C(=O)O)nn1-c1ccccc1[N+](=O)[O-]
melting point: 240 to 242 °C

NS(=O)(=O)Cc1cccc2cccnc12
melting point: 154 to 156 °C

COC(=O)c1ccc(F)c(N)c1
melting point: 67 to 69 °C

Cc1cc(C)n2ncc(C(=O)O)c2n1
melting point: 176 to 178 °C

COC(=O)c1cncnc1O
melting point: 201 to 203 °C

CC(C)c1ccc(CCC(N)=O)cc1
melting point: 142 to 144 °C

COc1cc(O)ncc1Br
melting point: 203 to 205 °C

Sc1nnc(NC2CCCCC2)s1
melting point: 144 to 146 °C

O=C(NCCS(=O)(=O)Cl)OCc1ccccc1
melting point: 39 to 41 °C

CCOc1ccc2nc(NS(=O)(=O)c3cc(C(=O)O)c(Cl)cc3Cl)sc2c1
melting point: 163 to 165 °C
